Measured values as given in patent publication US11685732B2, “MYST family histone acetyltransferase inhibitors” (Epizyme, Inc., priority 2017, dated 2023).

Legend:
KAT-8 = KAT-8 (Homo sapiens (Human), UniProt Q9H7Z6); assay: KAT-8 biochemical inhibition assay (SAMDI mass spectrometry)
Procedure, shortened: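 Acetylation of 1 μM peptide substrate with 5 μM acetyl-CoA by 12.5 nM enzyme, compound pre-incubated, 2% DMSO, Tris pH 8.0 buffer with DTT, 25 °C for 90 min. Quench with 0.5% formic acid; product read by SAMDI mass spectrometry to give IC50.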

KAT-7 = KAT-7 (Homo sapiens (Human), UniProt O95251); assay: KAT-7 biochemical inhibition assay (SAMDI mass spectrometry)
Sequence of KAT-7 (O95251 other isoform, or with tags, fused parts or gaps): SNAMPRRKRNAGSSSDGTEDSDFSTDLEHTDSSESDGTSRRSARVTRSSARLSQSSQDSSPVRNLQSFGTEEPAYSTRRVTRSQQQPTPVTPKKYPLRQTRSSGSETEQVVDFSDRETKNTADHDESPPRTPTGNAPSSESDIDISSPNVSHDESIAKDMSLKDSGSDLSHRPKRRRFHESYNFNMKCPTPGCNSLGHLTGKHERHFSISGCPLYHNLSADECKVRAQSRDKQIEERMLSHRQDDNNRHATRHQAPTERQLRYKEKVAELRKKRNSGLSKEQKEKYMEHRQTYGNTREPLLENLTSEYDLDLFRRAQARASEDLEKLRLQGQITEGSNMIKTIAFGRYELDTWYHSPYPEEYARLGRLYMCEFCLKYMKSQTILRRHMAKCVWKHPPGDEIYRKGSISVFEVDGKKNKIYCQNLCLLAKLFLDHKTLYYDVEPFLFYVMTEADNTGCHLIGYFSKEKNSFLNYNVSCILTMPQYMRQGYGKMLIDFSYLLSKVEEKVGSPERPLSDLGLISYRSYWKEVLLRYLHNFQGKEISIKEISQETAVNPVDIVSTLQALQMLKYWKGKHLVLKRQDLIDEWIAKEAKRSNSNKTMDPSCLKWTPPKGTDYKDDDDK
Procedure, shortened: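 Read-out was SAMDI time-of-flight MS of formic acid-quenched reactions (0.5% final). Compound dilutions (2% DMSO final) were pre-incubated with 6 nM KAT-7 in 50 mM Tris pH 8.0 with 1 mM DTT, then given 1 μM peptide substrate and 2 μM acetyl-CoA for 120 min at 25 °C. IC50 values were derived.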

KAT-6A = KAT-6A (Homo sapiens (Human), UniProt Q92794); assay: KAT-6A biochemical inhibition assay (SAMDI mass spectrometry)
Sequence of KAT-6A (Q92794 other isoform, or with tags, fused parts or gaps): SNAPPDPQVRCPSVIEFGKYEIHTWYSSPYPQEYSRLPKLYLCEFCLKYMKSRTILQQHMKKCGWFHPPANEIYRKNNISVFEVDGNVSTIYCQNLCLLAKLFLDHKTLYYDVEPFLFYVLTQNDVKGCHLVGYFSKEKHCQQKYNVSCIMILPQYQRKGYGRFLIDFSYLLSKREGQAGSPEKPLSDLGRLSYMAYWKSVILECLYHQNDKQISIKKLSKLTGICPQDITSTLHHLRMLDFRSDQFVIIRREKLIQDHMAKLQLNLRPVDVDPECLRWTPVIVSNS
Procedure, shortened: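 IC50 values came from SAMDI time-of-flight mass spectrometry after formic acid quench (0.5% final). Acetylation ran 90 min at 25 °C with 1 μM acetyl coenzyme A and 1 μM peptide substrate, following compound pre-incubation with 12.5 nM KAT-6A in Tris buffer pH 8.0 containing DTT, 2% DMSO final.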

KAT-5 = KAT-5 (Homo sapiens (Human), UniProt Q92993); assay: KAT-5 biochemical inhibition assay (SAMDI mass spectrometry)
Sequence of KAT-5 (Q92993 other isoform, or with tags, fused parts or gaps): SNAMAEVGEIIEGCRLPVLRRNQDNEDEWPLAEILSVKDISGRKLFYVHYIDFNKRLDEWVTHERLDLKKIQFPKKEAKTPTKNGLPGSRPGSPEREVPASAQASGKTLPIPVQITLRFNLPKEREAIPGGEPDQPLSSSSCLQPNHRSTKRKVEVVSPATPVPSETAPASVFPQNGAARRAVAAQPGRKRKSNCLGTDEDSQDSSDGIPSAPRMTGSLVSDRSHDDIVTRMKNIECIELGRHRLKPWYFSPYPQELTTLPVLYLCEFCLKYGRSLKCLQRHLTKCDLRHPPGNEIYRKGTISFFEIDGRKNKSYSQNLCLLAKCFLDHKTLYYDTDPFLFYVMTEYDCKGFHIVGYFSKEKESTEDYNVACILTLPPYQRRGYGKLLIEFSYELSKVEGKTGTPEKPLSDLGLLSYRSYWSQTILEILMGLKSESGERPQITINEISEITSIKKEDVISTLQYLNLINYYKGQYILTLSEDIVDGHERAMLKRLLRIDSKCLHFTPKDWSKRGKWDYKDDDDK
Procedure, shortened: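 Acetylation of 1 μM peptide by 9 nM enzyme with 0.5 μM acetyl-CoA (final) was run 90 min at 25° C in Tris pH 8.0 buffer with DTT, after compound preincubation at 2% DMSO. Formic acid stopped the reaction, and product was quantified by SAMDI mass spectrometry to derive IC50.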

Sequence of KAT-8 (Q9H7Z6 other isoform, or with tags, fused parts or gaps): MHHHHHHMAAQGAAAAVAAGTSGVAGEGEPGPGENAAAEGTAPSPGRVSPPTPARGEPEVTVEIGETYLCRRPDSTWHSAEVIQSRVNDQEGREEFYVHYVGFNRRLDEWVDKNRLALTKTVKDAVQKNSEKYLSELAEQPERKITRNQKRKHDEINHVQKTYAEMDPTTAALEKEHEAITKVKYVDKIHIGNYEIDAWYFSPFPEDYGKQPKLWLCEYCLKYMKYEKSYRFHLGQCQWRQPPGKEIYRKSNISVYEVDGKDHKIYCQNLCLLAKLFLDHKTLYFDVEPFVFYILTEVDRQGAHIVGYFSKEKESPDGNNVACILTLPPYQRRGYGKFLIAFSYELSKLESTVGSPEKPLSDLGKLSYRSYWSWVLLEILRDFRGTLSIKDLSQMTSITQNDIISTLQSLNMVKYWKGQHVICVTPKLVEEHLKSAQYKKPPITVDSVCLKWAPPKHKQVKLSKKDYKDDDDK

SMILES	IC50 (KAT-8) [µM]	IC50 (KAT-7) [µM]	IC50 (KAT-6A) [µM]	IC50 (KAT-5) [µM]
Cn1cnc(-c2cc(Cl)c(F)c(C(=O)NNS(=O)(=O)C[C@H]3CCN(C(=O)OC(C)(C)C)C3)c2)c1 [Compound I-122]	10 to 50	< 10	10 to 50	10 to 50
Cn1cnc(-c2cc(Cl)c(F)c(C(=O)NNS(=O)(=O)C[C@H]3C[C@H](N)C3)c2)c1 [Compound I-123]	10 to 50	< 10	10 to 50	10 to 50
Cn1cnc(-c2cc(Cl)c(F)c(C(=O)NNS(=O)(=O)C[C@H]3C[C@H](NC(=O)OC(C)(C)C)C3)c2)c1 [Compound I-124]	10 to 50	< 10	< 10	< 10
CC(=O)N[C@H]1C[C@H](CS(=O)(=O)NNC(=O)c2cc(-c3cn(C)cn3)cc(Cl)c2F)C1 [Compound I-125]	10 to 50	< 10	10 to 50	10 to 50
CCn1cnc(-c2cc(C)c(F)c(C(=O)NNS(=O)(=O)C3CCCCC3)c2)c1 [Compound I-126]	> 100	< 10	10 to 50	< 10
Cc1cc(-c2cn(C)cn2)cc(C(=O)NNS(=O)(=O)C2CCCCC2)c1F [Compound I-127]	> 100	< 10	10 to 50	< 10
Cc1cc(-c2cn(C)cn2)cc(C(=O)NNS(=O)(=O)Cc2ccccc2)c1F [Compound I-128]	> 100	< 10	10 to 50	10 to 50
Cc1cc(-c2cn(C)cn2)cc(C(=O)NNS(=O)(=O)CC2CCCCC2)c1F [Compound I-129]	> 100	< 10	< 10	< 10
Cc1cc(-c2cn(C)cn2)cc(C(=O)NNS(=O)(=O)CC2CCOCC2)c1F [Compound I-130]	> 100	< 10	10 to 50	< 10
Cc1cc(-c2cn(C)cn2)cc(C(=O)NNS(=O)(=O)C2CCOCC2)c1F [Compound I-131]	> 100	< 10	10 to 50	10 to 50
Cc1cc(-c2cn(C)cn2)cc(C(=O)NNS(=O)(=O)CC2CCCN(C(=O)OC(C)(C)C)C2)c1F (stereo not shown) [Compound I-132]	> 100	< 10	< 10	< 10
Cc1cc(-c2cn(C)cn2)cc(C(=O)NNS(=O)(=O)CC2CCCNC2)c1F (stereo not shown) [Compound I-133]	> 100	< 10	> 100	> 100
COCCn1cnc(-c2cc(C)c(F)c(C(=O)NNS(=O)(=O)C3CCCCC3)c2)c1 [Compound I-134]	> 100	< 10	> 100	10 to 50
COCCn1cnc(-c2cc(C)c(F)c(C(=O)NNS(=O)(=O)CC3CCCN(C(=O)OC(C)(C)C)C3)c2)c1 (stereo not shown) [Compound I-135]	> 100	10 to 50	50 to 100	< 10
COCCn1cnc(-c2cc(C)c(F)c(C(=O)NNS(=O)(=O)CC3CCCNC3)c2)c1 (stereo not shown) [Compound I-136]	> 100	> 100	> 100	> 100
COCCn1cnc(-c2cc(C)c(F)c(C(=O)NNS(=O)(=O)CC3CCCN(C(=O)COC)C3)c2)c1 (stereo not shown) [Compound I-137]	> 100	10 to 50	50 to 100	10 to 50
COCCn1cnc(-c2cc(C)c(F)c(C(=O)NNS(=O)(=O)C3CCOCC3)c2)c1 [Compound I-138]	> 100	50 to 100	> 100	10 to 50
Cc1cc(-c2cn(C(C)C)cn2)cc(C(=O)NNS(=O)(=O)C2CCCCC2)c1F [Compound I-139]	> 100	< 10	> 100	10 to 50
COCCn1cnc(-c2cc(C)c(F)c(C(=O)NNS(=O)(=O)CC3CCOCC3)c2)c1 [Compound I-140]	> 100	< 10	10 to 50	10 to 50
COCC(=O)N1CCCC(CS(=O)(=O)NNC(=O)c2cc(-c3cn(C)cn3)cc(C)c2F)C1 (stereo not shown) [Compound I-141]	> 100	< 10	< 10	< 10
CC(=O)N1CCCC(CS(=O)(=O)NNC(=O)c2cc(-c3cn(C)cn3)cc(C)c2F)C1 (stereo not shown) [Compound I-142]	> 100	< 10	< 10	< 10
Cc1cc(-c2cn(CCO)cn2)cc(C(=O)NNS(=O)(=O)C2CCOCC2)c1F [Compound I-143]	> 100	50 to 100	50 to 100	50 to 100

SMILES	IC50 (KAT-8) [µM]	IC50 (KAT-7) [µM]	IC50 (KAT-6A) [µM]	IC50 (KAT-5) [µM]
Cn1cnc(-c2cc(Cl)c(Cl)c(C(=O)NNS(=O)(=O)CC3CCCCC3)c2)c1 [Compound I-144]	> 100	< 10	> 100	> 100
Cc1cc(-c2cn(C)cn2)cc(C(=O)NNS(=O)(=O)CC2CCCCC2)c1C [Compound I-145]	> 100	10 to 50	> 100	> 100
Cc1cc(-c2cn(CCO)cn2)cc(C(=O)NNS(=O)(=O)CC2CCOCC2)c1F [Compound I-146]	> 100	10 to 50	10 to 50	10 to 50
Cc1cc(-c2cn(C)c(Cl)n2)cc(C(=O)NNS(=O)(=O)CC2CCCCC2)c1C [Compound I-147]	> 100	> 100	> 100	> 100
COCC(=O)N1CCCC(CS(=O)(=O)NNC(=O)c2cc(-c3cn(CCO)cn3)cc(C)c2F)C1 (stereo not shown) [Compound I-148]	10 to 50	10 to 50	10 to 50	10 to 50
Cn1cnc(-c2cc(F)c(F)c(C(=O)NNS(=O)(=O)C3CCOCC3)c2)c1 [Compound I-149]	10 to 50	< 10	10 to 50	10 to 50
Cn1cnc(-c2cc(F)c(F)c(C(=O)NNS(=O)(=O)CC3CCOCC3)c2)c1 [Compound I-150]	10 to 50	< 10	10 to 50	10 to 50
CCCn1cc(-c2cc(C)c(F)c(C(=O)NNS(=O)(=O)C3CCCCC3)c2)cn1 [Compound I-151]	> 100	10 to 50	> 100	50 to 100
COCCn1cc(-c2cc(C)c(F)c(C(=O)NNS(=O)(=O)C3CCCCC3)c2)cn1 [Compound I-152]	> 100	> 100	> 100	10 to 50
Cc1cc(-c2cncn2C)cc(C(=O)NNS(=O)(=O)C2CCCCC2)c1F [Compound I-153]	> 100	> 100	> 100	> 100
CCn1cc(-c2cc(C)c(F)c(C(=O)NNS(=O)(=O)C3CCCCC3)c2)cn1 [Compound I-154]	> 100	< 10	> 100	10 to 50
Cc1cc(-c2cnn(C(C)C)c2)cc(C(=O)NNS(=O)(=O)C2CCCCC2)c1F [Compound I-155]	> 100	10 to 50	> 100	> 100
Cc1cc(-c2cnn(C)c2)cc(C(=O)NNS(=O)(=O)C2CCCCC2)c1F [Compound I-156]	> 100	< 10	> 100	10 to 50
Cn1cc(-c2cc(Cl)c(F)c(C(=O)NNS(=O)(=O)CC3CCCCC3)c2)cn1 [Compound I-158]	> 100	< 10	10 to 50	< 10
CNC(=O)N1CC(CS(=O)(=O)NNC(=O)c2cc(-c3cn(C)cn3)cc(Cl)c2F)C1 [Compound I-160]	10 to 50	< 10	10 to 50	10 to 50
COc1ccc(CN(C)C(=O)N[C@H]2C[C@@H](CS(=O)(=O)NNC(=O)c3cc(-c4cn(C)cn4)cc(Cl)c3F)C2)cc1 [Compound I-161]	10 to 50	< 10	< 10	< 10
COc1ccc(CN(C)C(=O)N2CC[C@H](CS(=O)(=O)NNC(=O)c3cc(-c4cn(C)cn4)cc(Cl)c3F)C2)cc1 [Compound I-162]	10 to 50	< 10	10 to 50	< 10
CN(C)C(=O)N[C@H]1CC[C@@H](CS(=O)(=O)NNC(=O)c2cc(-c3cn(C)cn3)cc(Cl)c2F)CC1 [Compound I-163]	10 to 50	< 10	< 10	< 10
CCS(=O)(=O)N1CC(CS(=O)(=O)NNC(=O)c2cc(-c3cn(C)cn3)cc(Cl)c2F)C1 [Compound I-164]	10 to 50	< 10	< 10	10 to 50
O=C(NNS(=O)(=O)CC1CCOCC1)c1cc(-n2cncn2)cc(Cl)c1F [Compound I-165]	10 to 50	10 to 50	10 to 50	10 to 50
CN(C)C(=O)N1CC(CS(=O)(=O)NNC(=O)c2cc(-c3cn(C)cn3)cc(Cl)c2F)C1 [Compound I-167]	10 to 50	< 10	< 10	10 to 50
